One data set addresses EGFR T790ML858R (Homo sapiens, UniProt P00533, L858R/T790M). The data set is described as follows: EGFR T790ML858R Lance assay. The class given is biochemical. How it is done: (§1) Inhibition is indicated as […] [nM] (“−”=not measured). Compounds having an activity designated as “A” provided an IC50≤100 nM; compounds having an activity designated as “B” provided an 100 nM<IC50≤500 nM; compounds having an activity designated as “C” provided an 500 nM<IC50≤1000 nM; compounds having an activity designated as “D” provided an 1000 nM<IC50≤100000 nM; and compounds having an activity designated as “E” provided an IC50>10000 nM.

Data set [1] concerns the target Her2 Exon 20 INSYVMA Ba/F3 (Homo sapiens, UniProt P04626, DUP772-775, cells depend on it). The data set is described as follows: Her2 Exon 20 INSYVMA Ba/F3 CellTiter-Glo. The class given is cell-based. To be noted: CellTiter-Glo, 72 h, read-out: Her2 Exon 20 INSYVMA Ba/F3 CTG IC50. The method in brief: (§2)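 IC50 values come from dose–response fits of CellTiter-Glo luminescence in Ba/F3 cells treated with compound for 72 h at 37 °C, 5% CO2. Vehicle (DMSO) and 10 μM staurosporine wells set the assay window, with Z′ ≥0.5 required.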
For orientation: ATP-based viability assays read luminescence as a measure of living cells.

A short description of data set [2]: Metabolic stability in mouse liver microsomes without cofactor NADPH. The class given is in vitro ADME. To be noted: 3 μM test compound, mouse liver microsomes, without NADPH, 50 min, 37° C., LC-MS/MS. The procedure, abridged:
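Cofactor-free incubation: no NADPH added to mouse liver microsomes, with compound at 3 μM and 37° C. Remaining parent was quantified by LC-MS/MS at time points up to 50 minutes to track depletion.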

The next data set has as its system H1975. The data set is described as follows: H1975 CellTiter-Glo. Conditions: Homo sapiens, NCI-H1975; 72 h compound incubation; read-out: H1975 CTG IC50. It is filed as cell-based. The procedure, abridged:
(§3)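 ATP-based luminescent viability read after 72 h compound exposure (DMSO vehicle, range of concentrations), cells plated 24 h beforehand at 37° C, 5% CO2. IC50 by dose-response fitting; 10 μM Staurosporine and DMSO controls, Z′-factor ≥0.5 required.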

A further data set has as its target EGFR wt (Homo sapiens, UniProt P00533). The data set is described as follows: EGFR wt Lance assay. It is filed as biochemical. How it is done: as §1
The test system of the next data set is A431. The data set can be described thus: A431 CellTiter-Glo. Conditions: Homo sapiens, A-431; 72 h compound incubation; read-out: A431 CTG IC50. The class given is cell-based. The procedure, abridged:
as §3

Data set [3] has as its target EGFR Exon 20 INSNPH Ba/F3 (Homo sapiens, UniProt P00533, DUP771-773, cells depend on it). The data set can be described thus: EGFR Exon 20 INSNPH Ba/F3 CellTiter-Glo. It is filed as cell-based. To be noted: CellTiter-Glo, 72 h, read-out: EGFR Exon 20 INSNPH Ba/F3 CTG IC50. The procedure, abridged: as §2
The target of a further data set is T1, HER2 INS YVMA (Homo sapiens, UniProt P04626, INS775YVMA).
T1 construct: purchased DPF
T1 sequence (P04626 with tags, fused parts or gaps INS775YVMA): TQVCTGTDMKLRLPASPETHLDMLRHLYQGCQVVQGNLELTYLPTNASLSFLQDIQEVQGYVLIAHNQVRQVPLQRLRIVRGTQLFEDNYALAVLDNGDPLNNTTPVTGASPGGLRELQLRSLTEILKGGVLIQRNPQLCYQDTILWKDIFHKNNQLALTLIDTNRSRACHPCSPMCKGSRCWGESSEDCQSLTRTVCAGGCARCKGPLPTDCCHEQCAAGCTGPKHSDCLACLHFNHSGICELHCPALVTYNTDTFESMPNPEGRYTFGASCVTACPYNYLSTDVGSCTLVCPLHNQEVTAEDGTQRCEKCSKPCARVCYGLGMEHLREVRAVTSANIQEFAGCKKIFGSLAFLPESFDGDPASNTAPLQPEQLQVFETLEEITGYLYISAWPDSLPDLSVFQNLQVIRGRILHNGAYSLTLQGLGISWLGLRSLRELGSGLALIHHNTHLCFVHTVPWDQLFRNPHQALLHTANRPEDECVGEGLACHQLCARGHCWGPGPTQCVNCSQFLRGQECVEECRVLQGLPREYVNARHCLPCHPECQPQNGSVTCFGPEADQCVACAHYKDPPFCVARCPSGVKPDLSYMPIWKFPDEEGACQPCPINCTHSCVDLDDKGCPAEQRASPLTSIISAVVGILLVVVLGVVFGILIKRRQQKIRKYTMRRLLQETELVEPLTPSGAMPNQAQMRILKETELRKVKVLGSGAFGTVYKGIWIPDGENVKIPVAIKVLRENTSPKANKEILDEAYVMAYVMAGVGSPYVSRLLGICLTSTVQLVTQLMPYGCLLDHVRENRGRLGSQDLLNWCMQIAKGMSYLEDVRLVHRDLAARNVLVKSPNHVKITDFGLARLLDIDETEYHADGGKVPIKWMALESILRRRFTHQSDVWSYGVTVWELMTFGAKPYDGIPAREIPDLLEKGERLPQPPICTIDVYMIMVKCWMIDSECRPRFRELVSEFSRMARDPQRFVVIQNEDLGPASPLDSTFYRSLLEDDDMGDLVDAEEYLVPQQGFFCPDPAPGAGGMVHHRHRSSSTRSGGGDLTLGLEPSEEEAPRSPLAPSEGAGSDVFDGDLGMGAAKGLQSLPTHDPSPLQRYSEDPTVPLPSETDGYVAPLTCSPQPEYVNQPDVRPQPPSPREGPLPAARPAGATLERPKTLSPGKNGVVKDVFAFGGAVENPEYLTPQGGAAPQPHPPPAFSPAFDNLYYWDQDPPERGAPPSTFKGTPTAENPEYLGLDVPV
The data set is described as follows: Lance Kinase Activity Assay, HER2 INS YVMA (Her2 Exon 20 INSYVMA Lance). It is filed as biochemical. Conditions: biochemical Lance assay. The method in brief: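 IC50 was fitted to sigmoidal curves of TR-FRET signal (665 and 615 nm emission after 340 nm excitation) from an Eu anti-phospho antibody binding the phosphorylated ULight peptide. The ATP-started reaction ran 1 h at RT and was then quenched with 10 mM EDTA plus antibody for a further 1 h. Compounds were tested as 8-point, 3-fold dilutions.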

Her2 Exon 20 INSYVMA Ba/F3, sequence (P04626 with tags, fused parts or gaps DUP772-775): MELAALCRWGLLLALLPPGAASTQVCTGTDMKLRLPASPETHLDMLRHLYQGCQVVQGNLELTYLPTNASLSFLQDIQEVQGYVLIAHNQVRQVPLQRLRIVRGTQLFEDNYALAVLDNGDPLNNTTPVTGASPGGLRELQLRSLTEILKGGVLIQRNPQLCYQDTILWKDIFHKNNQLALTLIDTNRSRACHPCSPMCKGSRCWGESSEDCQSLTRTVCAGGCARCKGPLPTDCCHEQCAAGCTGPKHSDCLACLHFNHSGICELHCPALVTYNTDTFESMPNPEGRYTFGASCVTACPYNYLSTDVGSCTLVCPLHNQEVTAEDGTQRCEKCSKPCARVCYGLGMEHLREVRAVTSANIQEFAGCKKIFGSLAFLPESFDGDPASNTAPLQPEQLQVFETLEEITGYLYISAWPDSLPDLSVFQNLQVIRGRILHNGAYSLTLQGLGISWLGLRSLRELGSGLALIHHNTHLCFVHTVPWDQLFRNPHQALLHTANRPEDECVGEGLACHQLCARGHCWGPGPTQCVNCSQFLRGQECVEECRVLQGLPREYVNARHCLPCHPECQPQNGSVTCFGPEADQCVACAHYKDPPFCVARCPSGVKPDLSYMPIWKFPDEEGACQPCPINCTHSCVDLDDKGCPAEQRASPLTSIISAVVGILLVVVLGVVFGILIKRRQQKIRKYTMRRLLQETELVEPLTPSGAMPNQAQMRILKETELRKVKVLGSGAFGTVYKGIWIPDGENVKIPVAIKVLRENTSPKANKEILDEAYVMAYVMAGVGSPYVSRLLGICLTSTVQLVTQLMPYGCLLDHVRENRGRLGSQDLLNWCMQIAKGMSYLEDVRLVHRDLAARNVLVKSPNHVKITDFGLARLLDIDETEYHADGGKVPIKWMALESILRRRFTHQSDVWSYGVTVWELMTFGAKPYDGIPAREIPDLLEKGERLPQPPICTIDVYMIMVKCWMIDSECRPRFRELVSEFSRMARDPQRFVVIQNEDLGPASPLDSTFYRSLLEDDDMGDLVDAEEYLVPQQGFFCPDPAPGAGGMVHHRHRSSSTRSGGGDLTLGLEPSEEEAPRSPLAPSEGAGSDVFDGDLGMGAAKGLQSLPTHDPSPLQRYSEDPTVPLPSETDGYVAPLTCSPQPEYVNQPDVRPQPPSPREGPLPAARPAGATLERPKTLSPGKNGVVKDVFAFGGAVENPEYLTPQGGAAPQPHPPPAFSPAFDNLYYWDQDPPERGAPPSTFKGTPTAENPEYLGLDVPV
EGFR Exon 20 INSNPH Ba/F3, sequence (P00533 with tags, fused parts or gaps DUP771-773): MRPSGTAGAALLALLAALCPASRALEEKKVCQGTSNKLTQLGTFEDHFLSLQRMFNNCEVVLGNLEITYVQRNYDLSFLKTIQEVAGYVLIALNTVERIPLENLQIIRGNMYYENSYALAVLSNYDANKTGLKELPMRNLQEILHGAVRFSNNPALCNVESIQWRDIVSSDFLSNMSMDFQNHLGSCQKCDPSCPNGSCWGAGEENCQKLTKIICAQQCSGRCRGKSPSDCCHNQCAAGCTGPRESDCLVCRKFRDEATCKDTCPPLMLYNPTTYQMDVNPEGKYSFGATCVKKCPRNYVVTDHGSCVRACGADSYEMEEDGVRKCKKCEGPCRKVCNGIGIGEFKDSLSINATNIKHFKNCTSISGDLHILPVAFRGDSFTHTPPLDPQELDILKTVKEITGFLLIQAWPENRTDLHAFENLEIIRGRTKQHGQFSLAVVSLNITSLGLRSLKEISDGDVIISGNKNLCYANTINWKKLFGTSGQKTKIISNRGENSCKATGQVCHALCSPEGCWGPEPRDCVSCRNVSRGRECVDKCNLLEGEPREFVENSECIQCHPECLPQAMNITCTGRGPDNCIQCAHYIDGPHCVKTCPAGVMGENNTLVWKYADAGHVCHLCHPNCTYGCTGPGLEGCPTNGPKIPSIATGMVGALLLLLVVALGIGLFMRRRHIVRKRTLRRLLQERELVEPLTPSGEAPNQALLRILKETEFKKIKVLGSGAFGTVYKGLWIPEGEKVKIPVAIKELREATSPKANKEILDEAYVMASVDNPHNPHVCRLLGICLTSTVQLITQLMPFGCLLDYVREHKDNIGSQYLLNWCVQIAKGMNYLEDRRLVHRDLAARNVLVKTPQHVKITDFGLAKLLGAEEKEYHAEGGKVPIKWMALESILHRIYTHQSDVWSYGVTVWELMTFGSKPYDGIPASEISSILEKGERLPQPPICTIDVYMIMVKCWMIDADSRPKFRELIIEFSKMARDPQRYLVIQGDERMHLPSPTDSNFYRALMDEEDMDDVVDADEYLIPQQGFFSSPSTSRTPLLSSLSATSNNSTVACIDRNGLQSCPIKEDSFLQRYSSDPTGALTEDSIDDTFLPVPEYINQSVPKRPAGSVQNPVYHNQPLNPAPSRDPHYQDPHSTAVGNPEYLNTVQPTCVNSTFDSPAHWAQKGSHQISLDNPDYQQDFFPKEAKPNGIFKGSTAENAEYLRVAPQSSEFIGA
EGFR wt, sequence (P00533 25-1210): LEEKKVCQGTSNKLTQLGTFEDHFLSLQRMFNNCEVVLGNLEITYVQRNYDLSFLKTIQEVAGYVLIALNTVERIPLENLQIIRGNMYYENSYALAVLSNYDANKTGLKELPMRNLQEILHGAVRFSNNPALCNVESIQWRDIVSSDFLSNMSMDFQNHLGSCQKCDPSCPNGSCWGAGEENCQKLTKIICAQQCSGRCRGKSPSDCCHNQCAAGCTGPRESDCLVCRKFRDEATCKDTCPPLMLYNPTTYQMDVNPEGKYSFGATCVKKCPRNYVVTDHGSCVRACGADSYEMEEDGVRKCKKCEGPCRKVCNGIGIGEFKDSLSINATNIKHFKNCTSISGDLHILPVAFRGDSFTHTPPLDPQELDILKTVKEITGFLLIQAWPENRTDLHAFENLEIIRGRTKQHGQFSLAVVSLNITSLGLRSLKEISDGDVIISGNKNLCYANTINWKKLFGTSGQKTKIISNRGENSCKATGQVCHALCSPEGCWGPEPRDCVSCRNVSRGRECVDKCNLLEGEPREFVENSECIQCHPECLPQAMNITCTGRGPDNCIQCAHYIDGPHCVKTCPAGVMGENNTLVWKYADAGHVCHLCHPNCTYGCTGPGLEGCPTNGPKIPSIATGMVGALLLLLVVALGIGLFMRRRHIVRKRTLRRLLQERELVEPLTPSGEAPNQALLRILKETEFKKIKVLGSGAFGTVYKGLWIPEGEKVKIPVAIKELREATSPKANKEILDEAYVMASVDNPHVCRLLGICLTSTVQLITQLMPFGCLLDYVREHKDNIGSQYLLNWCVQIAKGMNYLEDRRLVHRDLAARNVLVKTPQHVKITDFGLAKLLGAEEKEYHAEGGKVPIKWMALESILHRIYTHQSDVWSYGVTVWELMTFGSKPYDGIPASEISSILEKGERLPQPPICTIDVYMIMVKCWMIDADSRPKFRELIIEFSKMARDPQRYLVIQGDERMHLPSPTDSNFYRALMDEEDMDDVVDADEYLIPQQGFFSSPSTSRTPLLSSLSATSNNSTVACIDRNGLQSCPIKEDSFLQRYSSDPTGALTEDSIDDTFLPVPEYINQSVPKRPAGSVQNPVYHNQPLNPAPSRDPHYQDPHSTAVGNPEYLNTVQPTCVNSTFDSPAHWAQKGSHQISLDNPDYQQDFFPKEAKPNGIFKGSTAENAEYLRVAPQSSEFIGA

What is called IC50 is the concentration needed to halve the response being measured. Turning to `C=CC(=O)Nc1cc(-c2c(-c3ccc(CN4CCN(C)CC4)cc3)[nH]c3ncc(C(=O)OC(C)C)cc23)ccc1C` [Example 160, isopropyl 3-(3-acrylamido-4-methylphenyl)-2-(4-((4-methylpiperazin-1-yl)methyl)phenyl)-1H-pyrrolo[2,3-b]pyridine-5-carboxylate], the IC50 is not above 100 nM on EGFR T790ML858R; 100 to 500 nM in the data set on H1975; not above 100 nM on EGFR wt; 1000 to 100000 nM in the data set on A431; not above 100 nM against HER2 INS YVMA. Besides, the GI50 in data set [1] and in data set [3] was 100 to 500 nM in each case. Further, the “Stability in presence of mouse liver microsomes without cofactor NADPH [% remaining after 50 min]” value in data set [2] was more than 99 % remaining after 50 min.

As for `C=CC(=O)Nc1cc(-c2c(-c3cccc(CN4CCN(C(C)=O)CC4)c3)[nH]c3ncccc23)ccc1C` [Example 81, N-(5-(2-(3-((4-acetylpiperazin-1-yl)methyl)phenyl)-1H-pyrrolo[2,3-b]pyridin-3-yl)-2-methylphenyl)acrylamide], the IC50 on EGFR T790ML858R was not above 100 nM; in the data set on H1975 it was 1000 to 100000 nM; on EGFR wt it was 100 to 500 nM; in the data set with A431, 1000 to 100000 nM; at HER2 INS YVMA, 1000 to 10000 nM. In addition, the GI50 in data set [1] and in data set [3] was 1000 to 10000 nM in each case. Moreover, the “Stability in presence of mouse liver microsomes without cofactor NADPH [% remaining after 50 min]” value in data set [2] was 80 % remaining after 50 min.

Turning to `C=CC(=O)N1CCc2ccc(-c3c(-c4ccc(N5CCN(C)CC5)cc4)[nH]c4nccc(OC(C)C)c34)cc21` [Example 115, 1-(6-(4-isopropoxy-2-(4-(4-methylpiperazin-1-yl)phenyl)-1H-pyrrolo[2,3-b]pyridin-3-yl)indolin-1-yl)prop-2-en-1-one 2,2,2-trifluoroacetate], the IC50 against EGFR T790ML858R is not above 100 nM; in the data set with H1975, not above 100 nM; at EGFR wt, not above 100 nM; in the data set with A431 it was 500 to 1000 nM; against HER2 INS YVMA, not above 100 nM. Moreover, the GI50 in data set [1] and in data set [3] was 100 to 500 nM each time. The “Stability in presence of mouse liver microsomes without cofactor NADPH [% remaining after 50 min]” value in data set [2] was more than 99 % remaining after 50 min.

Consider `C=CC(=O)N1CCOc2ccc(-c3c(-c4ccc(N5CCN(C(C)C)CC5)cc4)[nH]c4nccc(Cl)c34)cc21` [Example 85, 1-(6-(4-chloro-2-(4-(4-isopropylpiperazin-1-yl)phenyl)-1H-pyrrolo[2,3-b]pyridin-3-yl)-2H-benzo[b][1,4]oxazin-4(3H)-yl)prop-2-en-1-one], for which the IC50 was not above 100 nM against EGFR T790ML858R; 100 to 500 nM with H1975; not above 100 nM at EGFR wt; 500 to 1000 nM in the data set with A431; not above 100 nM at HER2 INS YVMA. The GI50 in data set [1] and in data set [3] was 100 to 500 nM in each case. Further, the “Stability in presence of mouse liver microsomes without cofactor NADPH [% remaining after 50 min]” value in data set [2] was more than 99 % remaining after 50 min.

Turning to `C=CC(=O)Nc1cc(-c2c(-c3ccnc(N4CCOCC4)c3)[nH]c3ncccc23)ccc1C` [Example 80, N-(2-methyl-5-(2-(2-morpholinopyridin-4-yl)-1H-pyrrolo[2,3-b]pyridin-3-yl)phenyl)acrylamide], the half-inhibitory concentration (IC50) was not above 100 nM at EGFR T790ML858R; 100 to 500 nM in the data set with H1975; 100 to 500 nM against EGFR wt; 1000 to 100000 nM in the data set with A431; 500 to 1000 nM at HER2 INS YVMA. Moreover, the GI50 in data set [1] and in data set [3] was 1000 to 10000 nM throughout. The “Stability in presence of mouse liver microsomes without cofactor NADPH [% remaining after 50 min]” value in data set [2] is more than 99 % remaining after 50 min.

`C=CC(=O)Nc1cc(-c2c(-c3ccc(N4CCN(C(C)C)CC4)cc3)[nH]c3ncc(C(=O)OC(C)C)cc23)ccc1C` [Example 176, isopropyl 3-(3-acrylamido-4-methylphenyl)-2-(4-(4-isopropylpiperazin-1-yl)phenyl)-1H-pyrrolo[2,3-b]pyridine-5-carboxylate]: the IC50 against EGFR T790ML858R is not above 100 nM; with H1975, 100 to 500 nM; at EGFR wt, not above 100 nM; in the data set on A431, 1000 to 100000 nM; at HER2 INS YVMA, not above 100 nM. The GI50 in data set [1] and in data set [3] was 100 to 500 nM each time. Also, the “Stability in presence of mouse liver microsomes without cofactor NADPH [% remaining after 50 min]” value in data set [2] is reported as more than 99 % remaining after 50 min.

`C=CC(=O)Nc1cc(-c2c(-c3ccc(N4CCN(C)CC4)c(F)c3)[nH]c3nccc(Cl)c23)ccc1C` [Example 42, N-(5-(4-chloro-2-(3-fluoro-4-(4-methylpiperazin-1-yl)phenyl)-1H-pyrrolo[2,3-b]pyridin-3-yl)-2-methylphenyl)acrylamide]: the IC50 at EGFR T790ML858R is not above 100 nM; in the data set with H1975 it was not above 100 nM; at EGFR wt it was not above 100 nM; in the data set on A431 it was 100 to 500 nM; against HER2 INS YVMA, not above 100 nM. Further, the GI50 in data set [1] and in data set [3] was 100 to 500 nM throughout. Also, in data set [2], the “Stability in presence of mouse liver microsomes without cofactor NADPH [% remaining after 50 min]” value is listed as more than 99 % remaining after 50 min.

For `C=CC(=O)Nc1cc(-c2c(-c3cnc(N4CCN(C)CC4)nc3)[nH]c3nccc(Cl)c23)ccc1C` [Example 39, N-(5-(4-chloro-2-(2-(4-methylpiperazin-1-yl)pyrimidin-5-yl)-1H-pyrrolo[2,3-b]pyridin-3-yl)-2-methylphenyl)acrylamide], the IC50 at EGFR T790ML858R is not above 100 nM; in the data set with H1975 it was 100 to 500 nM; against EGFR wt, not above 100 nM; with A431 it was 1000 to 100000 nM; against HER2 INS YVMA, 100 to 500 nM. In addition, the GI50 in data set [1] was in the range of 500 to 1000 nM; in data set [3], 1000 to 10000 nM. Further, the “Stability in presence of mouse liver microsomes without cofactor NADPH [% remaining after 50 min]” value in data set [2] is more than 99 % remaining after 50 min.

For the molecule `C=CC(=O)Nc1cc(-c2c(-c3ccc(N4CCN(C)CC4)cc3)[nH]c3ncc(C(=O)OC)cc23)ccc1C` [Example 134, Methyl 3-(3-acrylamido-4-methylphenyl)-2-(4-(4-methylpiperazin-1-yl)phenyl)-1H-pyrrolo[2,3-b]pyridine-5-carboxylate 2,2,2-trifluoroacetate], the IC50 against EGFR T790ML858R is not above 100 nM; in the data set with H1975, 100 to 500 nM; at EGFR wt, not above 100 nM; with A431, 1000 to 100000 nM; on HER2 INS YVMA it was not above 100 nM. Besides, the GI50 in data set [1] and in data set [3] was 100 to 500 nM each time. Besides, the “Stability in presence of mouse liver microsomes without cofactor NADPH [% remaining after 50 min]” value in data set [2] was more than 99 % remaining after 50 min.

On to `C=CC(=O)N1CCc2ccc(-c3c(-c4ccc(CN5CCN(C)CC5)cc4)[nH]c4nccc(OC)c34)cc21` [Example 113, 1-(6-(4-methoxy-2-(4-((4-methylpiperazin-1-yl)methyl)phenyl)-1H-pyrrolo[2,3-b]pyridin-3-yl)indolin-1-yl)prop-2-en-1-one], for which the IC50 against EGFR T790ML858R was not above 100 nM; in the data set on H1975, not above 100 nM; against EGFR wt, not above 100 nM; with A431, 100 to 500 nM; at HER2 INS YVMA, not above 100 nM. Also, the GI50 in data set [1] and in data set [3] was not above 100 nM throughout. Further, in data set [2], the “Stability in presence of mouse liver microsomes without cofactor NADPH [% remaining after 50 min]” value is recorded as 96 % remaining after 50 min.

As for `C=CC(=O)Nc1cc(-c2c(-c3ccc(N4CCN(C(C)=O)CC4)cc3)[nH]c3nccc(OC)c23)ccc1C` [Example 74, N-(5-(2-(4-(4-acetylpiperazin-1-yl)phenyl)-4-methoxy-1H-pyrrolo[2,3-b]pyridin-3-yl)-2-methylphenyl)acrylamide], the IC50 against EGFR T790ML858R is not above 100 nM; with H1975 it was not above 100 nM; against EGFR wt it was not above 100 nM; in the data set on A431 it was 500 to 1000 nM; against HER2 INS YVMA it was not above 100 nM. In addition, the GI50 in data set [1] lay within 500 to 1000 nM; in data set [3], 100 to 500 nM. Moreover, the “Stability in presence of mouse liver microsomes without cofactor NADPH [% remaining after 50 min]” value in data set [2] amounted to 90 % remaining after 50 min.

For the origin of these results see patent publication US20220370440A1 (Lead Discovery Center GmbH, priority 2018, published 2022).
